# Tests used:
# Type in all cases: physicochemical
# [1] = Physical state of the isolated dye; details: for Physical State of Dye: after isolation according to Procedure B
# Source text: alternatively, the crude liquid dye may be taken up with a volatile solvent and the solvent removed during the drying process to yield a non-volatile liquid colorant.
# [2] = Dissolution of 58% dye in 42% fuel by warming, cooling to 25° C. (six heating/diesel oils); details: 58% by weight dye, warmed, cooled to 25° C.
# Description: No. 2 Regular Grade Diesel Oil
# Each dye-fuel oil mixture was warmed with stirring and then cooled to 25° C.
# [3] = Storage solubility in No. 1 and No. 2 Heating Oil at ambient temperature and -10° C.
# Description: The resultant mixtures were stored at ambient temperatures (20° to 25° C.) and at -10° C. Where any separation of dye occurred, the dye content of the remaining solution was determined colorimetrically.
# [4] = Storage solubility in xylene at 20°-25° C. and -10° C.
# Description: The solutions obtained were stored at 20°-25°C. and at -10° C. Where any separation of dye occurred, the dye content of the remaining solution was determined colorimetrically.
# [5] = Rate and extent of dissolution in No. 1 and No. 2 Heating Oils at 25° C. (colorimetric); details: for Percent Dissolved: 25° C.
# Description: The solubility properties of each of the dyes of Examples 16-41 were evaluated in the fuels No. 1 and No. 2 Heating Oils, respectively. The procedure was as follows:
# Where the dyes are solid dyes, excess of pulverized solid dye, far beyond that which would dissolve, i.e., 30 to 35% dye, was added to the respective oils at 25° C. and agitated at constant speed. Samples were removed at 1, 10 and 20 minute intervals, filtered, and the amount of dissolved dye determined colorimetrically.
# The tarry non-solid dyes were charged in proportions of 50-60% dye to 50-40% oil rather than 30-35% used for the solid dyes. In fact, it was very difficult to stir the tarry dye-fuel oil mixture at a dye concentration of 50%. Samples for these dyes were taken after 2 minutes. The longer initial time for the tarry dyes was to permit reasonable contact between solvent and the viscous, condensed dye.
# [6] = No. 1 Fuel Oil, 1 Minute, aminoazobenzene dyes (Table 4)
# [7] = No. 1 Fuel Oil, 10 Minutes, aminoazobenzene dyes (Table 4)
# [8] = No. 1 Fuel Oil, 20 Minutes, aminoazobenzene dyes (Table 4)
# [9] = No. 2 Fuel Oil, 1 Minute, aminoazobenzene dyes (Table 5)
# [10] = No. 2 Fuel Oil, 10 Minutes, aminoazobenzene dyes (Table 5)
# [11] = No. 2 Fuel Oil, 20 Minutes, aminoazobenzene dyes (Table 5)
# [12] = No. 1 Fuel Oil, 1 Minute, aminoazotoluene dyes (Table 6)
# [13] = No. 1 Fuel Oil, 10 Minutes, aminoazotoluene dyes (Table 6)
# [14] = No. 1 Fuel Oil, 20 Minutes, aminoazotoluene dyes (Table 6)
# [15] = No. 2 Fuel Oil, 1 Minute, aminoazotoluene dyes (Table 7)
# [16] = No. 2 Fuel Oil, 10 Minutes, aminoazotoluene dyes (Table 7)
# [17] = No. 2 Fuel Oil, 20 Minutes, aminoazotoluene dyes (Table 7)
Structure (SMILES),Physical State of Dye [1],"Percent Dissolved [5, 6] [%]","Percent Dissolved [5, 7] [%]","Percent Dissolved [5, 8] [%]","Percent Dissolved [5, 9] [%]","Percent Dissolved [5, 10] [%]","Percent Dissolved [5, 11] [%]","Percent Dissolved [5, 12] [%]","Percent Dissolved [5, 13] [%]","Percent Dissolved [5, 14] [%]","Percent Dissolved [5, 15] [%]","Percent Dissolved [5, 16] [%]","Percent Dissolved [5, 17] [%]",other results
CCCCC(CC)CNc1ccc2ccccc2c1N=Nc1ccc(N=Nc2ccccc2)cc1C (stereo not shown) [Example 3],–,–,–,–,–,–,–,–,–,–,–,–,–,"Physical State of Dye at 20° C. ([1]; 20° C.): Liquid; behavior of dye-fuel oil mixture on cooling/storage [2]: completely soluble and remained soluble at temperatures ranging from -10 °C to 25 °C; Solubility (% by Wt.) ([3]; No. 1 Heating Oil, 20° C.-25° C. (Table 8)): Complete; Solubility (% by Wt.) ([3]; No. 1 Heating Oil, -10° C. (Table 8)): Complete; Solubility (% by Wt.) ([3]; No. 2 Heating Oil, 20° C.-25° C. (Table 9)): Complete; Solubility (% by Wt.) ([3]; No. 2 Heating Oil, -10° C. (Table 9)): Complete; Solubility (% by Wt.) ([4]; 20° C.-25° C. (Table 12)): Complete; Solubility (% by Wt.) ([4]; -10° C. (Table 12)): Complete"
CCNc1ccc2ccccc2c1N=Nc1ccc(N=Nc2ccccc2)cc1 [Example 16],Solid,1.05,1.36,1.48,1.49,1.64,1.78,–,–,–,–,–,–,–
CCCCNc1ccc2ccccc2c1N=Nc1ccc(N=Nc2ccccc2)cc1 [Example 17],Solid,1.99,1.79,1.57,1.83,2.03,2.12,–,–,–,–,–,–,–
COCCCNc1ccc2ccccc2c1N=Nc1ccc(N=Nc2ccccc2)cc1 [Example 18],Solid,2.02,3.15,3.57,0.66,0.68,0.73,–,–,–,–,–,–,–
OCCOCCNc1ccc2ccccc2c1N=Nc1ccc(N=Nc2ccccc2)cc1 [Example 19],Solid,0.06,0.06,0.06,0.14,0.17,0.21,–,–,–,–,–,–,–
CCCCCCNc1ccc2ccccc2c1N=Nc1ccc(N=Nc2ccccc2)cc1 [Example 20],Solid,4.65,4.47,4.35,5.12,5.12,5.27,–,–,–,–,–,–,–
c1ccc(N=Nc2ccc(N=Nc3c(NC4CCCCC4)ccc4ccccc34)cc2)cc1 [Example 21],Solid,4.01,2.25,2.30,3.10,3.10,3.21,–,–,–,–,–,–,–
CCOCCOCCCNc1ccc2ccccc2c1N=Nc1ccc(N=Nc2ccccc2)cc1 [Example 22],–,3.68,–,3.68,0.57,0.58,0.61,–,–,–,–,–,–,solubility in fuel oils (in words) ([5]; No. 1 and No. 2 fuel oils): low solubility in both fuels much like that of a solid dye
CCCCCCCNc1ccc2ccccc2c1N=Nc1ccc(N=Nc2ccccc2)cc1 [Example 23],Solid,4.92,7.83,7.56,7.11,8.10,8.90,–,–,–,–,–,–,–
CCCCCCCCNc1ccc2ccccc2c1N=Nc1ccc(N=Nc2ccccc2)cc1 [Example 24],Solid,12.05,7.26,5.96,5.48,6.25,6.25,–,–,–,–,–,–,–
CCCCCCCCCCNc1ccc2ccccc2c1N=Nc1ccc(N=Nc2ccccc2)cc1 [Example 26],Solid,4.97,5.12,5.63,6.36,7.25,8.14,–,–,–,–,–,–,–
CCCCCCCCCCCCNc1ccc2ccccc2c1N=Nc1ccc(N=Nc2ccccc2)cc1 [Example 28],Solid,2.85,4.60,5.38,7.46,8.17,9.06,–,–,–,–,–,–,–
CCNc1ccc2ccccc2c1N=Nc1ccc(N=Nc2ccccc2C)cc1C [Example 29],Solid,–,–,–,–,–,–,0.24,0.32,0.37,0.29,0.37,0.39,–
CCCCNc1ccc2ccccc2c1N=Nc1ccc(N=Nc2ccccc2C)cc1C [Example 30],Solid,–,–,–,–,–,–,0.19,0.26,0.26,0.27,0.29,0.35,–
COCCCNc1ccc2ccccc2c1N=Nc1ccc(N=Nc2ccccc2C)cc1C [Example 31],Solid,–,–,–,–,–,–,0.58,0.57,0.58,2.96,4.21,4.96,–
Cc1ccccc1N=Nc1ccc(N=Nc2c(NCCOCCO)ccc3ccccc23)c(C)c1 [Example 32],Solid,–,–,–,–,–,–,0.09,0.12,0.13,0.20,0.15,0.15,–
CCCCCCNc1ccc2ccccc2c1N=Nc1ccc(N=Nc2ccccc2C)cc1C [Example 33],Solid,–,–,–,–,–,–,1.31,1.28,1.27,0.93,1.01,1.11,–
Cc1ccccc1N=Nc1ccc(N=Nc2c(NC3CCCCC3)ccc3ccccc23)c(C)c1 [Example 34],Solid,–,–,–,–,–,–,0.82,0.87,0.94,0.99,1.05,1.09,–
CCOCCOCCCNc1ccc2ccccc2c1N=Nc1ccc(N=Nc2ccccc2C)cc1C [Example 35],Solid,–,–,–,–,–,–,5.33,6.23,7.40,3.70,–,3.97,–
CCCCCCCNc1ccc2ccccc2c1N=Nc1ccc(N=Nc2ccccc2C)cc1C [Example 36],Solid,–,–,–,–,–,–,1.42,1.56,1.65,1.77,2.27,2.59,–
CCCCCCCCNc1ccc2ccccc2c1N=Nc1ccc(N=Nc2ccccc2C)cc1C [Example 37],Solid,–,–,–,–,–,–,1.38,1.39,1.78,2.26,2.89,2.69,–
CCCCCCCCCCNc1ccc2ccccc2c1N=Nc1ccc(N=Nc2ccccc2C)cc1C [Example 39],Solid,–,–,–,–,–,–,1.09,1.13,1.14,1.30,1.37,1.48,–
CCCCCCCCCCCCNc1ccc2ccccc2c1N=Nc1ccc(N=Nc2ccccc2C)cc1C [Example 41],Solid,–,–,–,–,–,–,3.29,4.04,4.50,4.48,4.68,5.21,–

# — patent US4000985A, “Azo dyes having a high solubility in petroleum fuels” (Morton-Norwich Products, Inc., priority 1975, dated 1977)
